What follows are compounds tested on RSV A2 strain (assay: In vitro CPE (CytoPathic Effect) inhibition effect evaluation test, RSV type A). Conditions: human respiratory syncytial virus, HEp-2.
Type: cell-based
How it was run: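 HEp-2 cells (2.4×10^5 cells/mL, 2% FBS E-MEM) were infected with RSV alongside 3-fold compound dilutions and incubated at 37 °C, 4 days for A2 and 5 days for B Wash/18537. Viable cells quantified by CellTiter-Glo 2.0 luminescence; EC50 by nonlinear regression as 50% CPE inhibition.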

Row | SMILES | EC50
1 | O=C(NC1(C(=O)O)C2CC3CC(C2)CC1C3)c1cnc(N2CC3(CCOCC3)c3cc(O[C@@H]4C[C@H]5CC[C@@H](C4)N5)ccc32)nc1C(F)(F)F (stereo partly shown) [Compound I-212] | 100 to 5000 nM

Same assay, conditions: human respiratory syncytial virus, HEp-2, 96 h, read-out: EC50, inhibitory effect against RSV type A (CPE inhibition)

Row | SMILES | EC50
2 | Cn1c(C2CCOCC2)c(-c2ccc(C(=O)NC3(C(=O)O)C4CC5CC(C4)CC3C5)c(C(F)(F)F)n2)c2ccc(OC3CCN(c4ncccn4)CC3)cc21 (stereo not shown) [Compound I-270] | 37 nM

Same assay, conditions: human respiratory syncytial virus; inhibitory effect against RSV type A (RSV A2 strain), HEp-2 cells, CPE inhibition; read-out: EC50

Row | SMILES | EC50
3 | O=C(NC1(C(=O)O)C2CC3CC(C2)CC1C3)c1cnc(-c2cn(C3CCC(F)(F)CC3)c3ccc(OC4CCN(C5COC5)CC4)cc23)nc1C(F)(F)F (stereo not shown) [Compound I-225] | 10 to 100 nM
4 | O=C(NC1(C(=O)O)C2CC3CC(C2)CC1C3)c1cnc(-c2cn(C3CCC(F)(F)CC3)c3cc(O[C@@H]4CCN(C5COC5)C4)ccc23)nc1C(F)(F)F (stereo partly shown) [Compound I-246] | < 10 nM
5 | CC(=O)N1CCC(Oc2ccc3c(-c4ncc(C(=O)NC5(C(=O)O)C6CC7CC(C6)CC5C7)c(C(F)(F)F)n4)cn(C4CCC(F)(F)CC4)c3c2)CC1 (stereo not shown) [Compound I-247] | < 10 nM
6 | O=C(NC1(C(=O)O)C2CC3CC(C2)CC1C3)c1cnc(-c2cn(C3CCC(F)(F)CC3)c3cc(O[C@H]4CCN(C5COC5)C4)ccc23)nc1C(F)(F)F (stereo partly shown) [Compound I-248] | < 10 nM
7 | O=C(NC1(C(=O)O)C2CC3CC(C2)CC1C3)c1ccc(-c2cn(C3CS(=O)(=O)C3)c3cc(OC4CCN(c5ncccn5)CC4)ccc23)nc1C(F)(F)F (stereo not shown) [Compound I-251] | < 10 nM
8 | O=C(NC1(C(=O)O)C2CC3CC(C2)CC1C3)c1ccc(-c2cn(CC(F)(F)F)c3cc(OC4CCN(c5ncccn5)CC4)ccc23)nc1C(F)(F)F (stereo not shown) [Compound I-252] | < 10 nM
9 | COCCN1CCC(Oc2ccc3c(-c4ncc(C(=O)NC5(C(=O)O)C6CC7CC(C6)CC5C7)c(C(F)(F)F)n4)cn(C4CCC(F)(F)CC4)c3c2)CC1 (stereo not shown) [Compound I-253] | < 10 nM
10 | CS(=O)(=O)CCN1CCC(Oc2ccc3c(-c4ncc(C(=O)NC5(C(=O)O)C6CC7CC(C6)CC5C7)c(C(F)(F)F)n4)cn(C4CCC(F)(F)CC4)c3c2)CC1 (stereo not shown) [Compound I-254] | 10 to 100 nM
11 | COC(=O)N1CCC(Oc2ccc3c(-c4ncc(C(=O)NC5(C(=O)O)C6CC7CC(C6)CC5C7)c(C(F)(F)F)n4)cn(C4CCC(F)(F)CC4)c3c2)CC1 (stereo not shown) [Compound I-255] | < 10 nM
12 | O=C(NC1(C(=O)O)C2CC3CC(C2)CC1C3)c1cnc(-c2cn(C3CCC(F)(F)CC3)c3cc(OC4CCN(C(=O)C5CC5)CC4)ccc23)nc1C(F)(F)F (stereo not shown) [Compound I-258] | < 10 nM
13 | O=C(NC1(C(=O)O)C2CC3CC(C2)CC1C3)c1cnc(-c2cn(C3CCC(F)(F)CC3)c3cc(OC4CCN(S(=O)(=O)C5CC5)CC4)ccc23)nc1C(F)(F)F (stereo not shown) [Compound I-259] | < 10 nM
14 | O=C(NC1(C(=O)O)C2CC3CC(C2)CC1C3)c1cnc(-c2cn(C3CCC(F)(F)CC3)c3cc(OC4CCN(C(=O)c5ncccn5)CC4)ccc23)nc1C(F)(F)F (stereo not shown) [Compound I-260] | 10 to 100 nM
15 | O=C(NC1(C(=O)O)C2CC3CC(C2)CC1C3)c1ccc(-c2cn(CC3CC(F)(F)C3)c3cc(OC4CCN(c5ncccn5)CC4)ccc23)nc1C(F)(F)F (stereo not shown) [Compound I-264] | < 10 nM
16 | O=C(NC1(C(=O)O)C2CC3CC(C2)CC1C3)c1ccc(-c2cn(CC3COC3)c3cc(OC4CCN(c5ncccn5)CC4)ccc23)nc1C(F)(F)F (stereo not shown) [Compound I-265] | < 10 nM
17 | CC1CN(c2ncccn2)CCC1Oc1ccc2c(-c3ncc(C(=O)NC4(C(=O)O)C5CC6CC(C5)CC4C6)c(C(F)(F)F)n3)cn(C3CCC(F)(F)CC3)c2c1 (stereo not shown) [Compound I-273] | < 10 nM
18 | O=C(NC1(C(=O)O)C2CC3CC(C2)CC1C3)c1cnc(N2CC3(CCOCC3)c3cc(OC4CCN(c5ncc(C(F)(F)F)cn5)CC4)ccc32)nc1C(F)(F)F (stereo not shown) [Compound I-274] | < 10 nM
19 | O=C(NC1(C(=O)O)C2CC3CC(C2)CC1C3)c1cnc(-c2cn(C3CCC(F)(F)CC3)c3cc(OCc4ccc5c(c4)OCC5)ccc23)nc1C(F)(F)F (stereo not shown) [Compound I-278] | < 10 nM
20 | O=C(NC1(C(=O)O)C2CC3CC(C2)CC1C3)c1cnc(N2CC3(CCOCC3)c3cc(-c4ccccc4)ccc32)nc1C(F)(F)F (stereo not shown) [Compound I-279] | < 10 nM

Continued, values first:

Row | EC50 | SMILES
21 | < 10 nM | O=C(O)/C=C/C1(NC(=O)c2cnc(N3CC4(CCOCC4)c4cc(OC5CCN(c6ncccn6)CC5)ccc43)nc2C(F)(F)F)C2CC3CC(C2)CC1C3 (stereo not shown) [Compound I-208]
22 | < 10 nM | CC(C)N1CCC(Oc2ccc3c(c2)C2(CCOCC2)CN3c2ncc(C(=O)NC3(C(=O)O)C4CC5CC(C4)CC3C5)c(C(F)(F)F)n2)CC1 (stereo not shown) [Compound I-209]
23 | < 10 nM | O=C(NC1(C(=O)O)C2CC3CC(C2)CC1C3)c1cnc(N2CCc3cc(CN4CCN(c5ncccn5)CC4)ccc32)nc1C(F)(F)F (stereo not shown) [Compound I-213]
24 | < 10 nM | N#C[C@]12C[C@@H]3C[C@H](C1)[C@@](NC(=O)c1cnc(N4CC5(CCOCC5)c5cc(OC6CCN(c7ncccn7)CC6)ccc54)nc1C(F)(F)F)(C(=O)O)[C@@H](C3)C2 [Compound I-219]
25 | < 10 nM | O=C(NC1(C(=O)O)C2CC3CC(C2)CC1C3)c1cnc(N2CCc3cc(OC4CCN(C5COC5)CC4)ccc32)nc1C(F)(F)F (stereo not shown) [Compound I-220]
26 | < 10 nM | O=C(NC1(C(=O)O)C2CC3CC(C2)CC1C3)c1ccc(-c2cn(C3CCOCC3)c3cc(OC4CCN(c5ncccn5)CC4)c(F)cc23)nc1C(F)(F)F (stereo not shown) [Compound I-222]
27 | < 10 nM | O=C(NC1(C(=O)O)C2CC3CC(C2)CC1C3)c1cnc(N2CC3(CCOCC3)c3cc(OC4CN(C(=O)OCc5ccccc5)C4)ccc32)nc1C(F)(F)F (stereo not shown) [Compound I-224]
28 | < 10 nM | O=C(NC1(C(=O)O)C2CC3CC(C2)CC1C3)c1cnc(N2CC3(CCOCC3)c3cc(OC4CN(C5COC5)C4)ccc32)nc1C(F)(F)F (stereo not shown) [Compound I-226]
29 | < 10 nM | Cc1nc(N2CC3(CCOCC3)c3cc(OC4CCN(c5ncccn5)CC4)ccc32)nc(C(F)(F)F)c1C(=O)NC1(C(=O)O)C2CC3CC(C2)CC1C3 (stereo not shown) [Compound I-229]
30 | < 10 nM | O=C(NC1(C(=O)O)C2CC3CC(C2)CC1C3)c1cnc(N2CC3(CCOCC3)c3cc(OC4CN(C(=O)C5COC5)C4)ccc32)nc1C(F)(F)F (stereo not shown) [Compound I-230]
31 | < 10 nM | Cn1cc(CN2CC(Oc3ccc4c(c3)C3(CCOCC3)CN4c3ncc(C(=O)NC4(C(=O)O)C5CC6CC(C5)CC4C6)c(C(F)(F)F)n3)C2)cn1 (stereo not shown) [Compound I-231]
32 | < 10 nM | O=C(NC1(C(=O)O)C2CC3CC(C2)CC1C3)c1cnc(-c2cn(C3CCC(F)(F)CC3)c3ccc(O[C@H]4CC[C@H](n5cccn5)CC4)cc23)nc1C(F)(F)F (stereo partly shown) [Compound I-232]
33 | < 10 nM | O=C(NC1(C(=O)O)C2CC3CC(C2)CC1C3)c1cnc(-c2cn(C3CCC(F)(F)CC3)c3cc(OC4CCN(c5nccs5)CC4)ccc23)nc1C(F)(F)F (stereo not shown) [Compound I-236]
34 | < 10 nM | O=C(NC1(C(=O)O)C2CC3CC(C2)CC1C3)c1ccc(-c2cn(C3CCC(F)(F)CC3)c3cc(OC4CCN(C5COC5)CC4)ccc23)nc1C(F)(F)F (stereo not shown) [Compound I-240]
35 | < 10 nM | O=C(NC1(C(=O)O)C2CC3CC(C2)CC1C3)c1cnc(-c2cn(C3CCC(F)(F)CC3)c3cc(OC4CCN(c5ncccc5F)CC4)ccc23)nc1C(F)(F)F (stereo not shown) [Compound I-241]
36 | < 10 nM | O=C(NC1(C(=O)O)C2CC3CC(C2)CC1C3)c1cnc(-c2cn(C3CCC(F)(F)CC3)c3cc(OC4CCN(C5CCOCC5)CC4)ccc23)nc1C(F)(F)F (stereo not shown) [Compound I-242]
37 | < 10 nM | O=C(NC1(C(=O)O)C2CC3CC(C2)CC1C3)c1cnc(N2CC3(CCCC3)c3cc(OC4CCN(c5ncccn5)CC4)ccc32)nc1C(F)(F)F (stereo not shown) [Compound I-244]

Source: patent US12528790B2, “Amide derivative having antiviral activity” (Shionogi & Co., Ltd., priority 2020, dated 2026)
